assay: Human HepG2 cell viability assay in 384 well format; type: toxicity, cell-based; parameters: dose 125 nL, time 70.5 hour; concentration not given beside the values; details: HepG2 cells, read-out: Inhibition

First: CCc1cccc(NC(=O)NC2CCc3nc(C)nn3C2)c1 (configuration not stated)
Second: Cn1ccnc1-c1cccc(NC(=O)NCCCN2CCOCC2)c1
The cytotoxicity at 70.5 h of the first is higher: 13.8% for the first, -2.94% for the second.

Going from `CN(C)c1ccc(CCCNC(=O)NCC(O)c2cccs2)cc1` (configuration not stated) to `CN(C)C(=O)Cc1ccc(NCc2nccn2C)cc1`, the cytotoxicity at 70.5 h rises from -8.37% to -2.12%.

Going from `CC(=O)N1CCOC(c2cc(N3CC(O)C3)nc(C)n2)C1` (configuration not stated) to `COc1ccc(-c2nccnc2C2CCN(C(C)=O)CC2)cc1`, the cytotoxicity at 70.5 h rises from -16.5% to 19.6%.

Compared with `c1cc(C2CC2)n2cnc(C3CN(Cc4nccs4)CCO3)c2c1` (configuration not stated), `O=C1c2cccnc2OC(CN2CCOCC2)CN1Cc1cccs1` (configuration not stated) is lower in cytotoxicity at 70.5 h: -1.41% for the first, -4.39% for the second.

Going from `CC(C)n1nc2c(cc1=O)CN(Cc1nnc(C3CC3)o1)CC2` to `CC(C)CNC(=O)c1cccc(CN2CCc3c(ncn3C)C2)c1`, the cytotoxicity at 70.5 h falls from -3.62% to -13.6%.

First: O=C(Cn1c(=O)oc2ccccc21)NCC1(O)CCc2ccccc2C1 (configuration not stated)
Second: O=C(CCn1c(=O)oc2ccccc21)NCC(O)c1ccc(F)c(F)c1 (configuration not stated)
The cytotoxicity at 70.5 h of the first is higher: -2.64% for the first, -4.98% for the second.

First: COCCc1noc(CN2CCCc3cccc(OC)c32)n1
Second: COc1ccc(-c2noc(Cn3cnc(C)c3)n2)c(OC)c1OC
The cytotoxicity at 70.5 h of the first is lower: -4.64% for the first, -0.844% for the second.

First: Cc1ccc(C(=O)NC2CCN(C(C)C)C2)c(=O)[nH]1 (configuration not stated)
Second: CCS(=O)(=O)N1CCC(NC(=O)c2cc(C)ccc2O)CC1
The cytotoxicity at 70.5 h of the first is lower: -14.4% for the first, -5.66% for the second.

Compared with `Cc1cnn(Cc2cc(F)ccc2F)c1NC(=O)CNC(=O)C1CC1`, `CCn1nccc1CNC(=O)C1CCCC1` is lower in cytotoxicity at 70.5 h: 1.15% for the first, -6.56% for the second.

First: O=C(N[C@@H]1CN(c2ncccn2)C[C@@H]2CCCO[C@@H]21)c1ccncc1
Second: c1ccc(OC[C@]23COC[C@H]2CN(c2ncccn2)C3)nc1
The cytotoxicity at 70.5 h of the first is higher: -3.78% for the first, -9.18% for the second.

Going from `N#Cc1ccnc(N2CCC(NCCN3CCOCC3)CC2)c1` to `O=C(NCCCN1CCOCC1)c1ccn(COc2ccc(Br)cc2)n1`, the cytotoxicity at 70.5 h rises from -2.14% to 12.3%.

Compared with `COc1cccc2c(C)c(C(=O)N3CCNCC3C(N)=O)[nH]c12` (configuration not stated), `Cc1cc(C(=O)N2CCN(C(=O)Cc3ccccn3)CC2)c(C)s1` is higher in cytotoxicity at 70.5 h: -7.8% for the first, 0.259% for the second.

Compared with `c1ccc(OCc2ccncc2)c(CNC2CCc3ncnn3C2)c1` (configuration not stated), `Cc1nn2cccnc2c1C(=O)N1CCCC(Nc2ccccc2)C1` (configuration not stated) is lower in cytotoxicity at 70.5 h: 17.2% for the first, -0.861% for the second.

Compared with `COC(=O)NCCCC(=O)NC1(c2cccc(Cl)c2)CC1`, `CC(Oc1ccccc1C(F)(F)F)C(=O)NCCCC(N)=O` (configuration not stated) is higher in cytotoxicity at 70.5 h: -6.46% for the first, 11.1% for the second.

Compared with `COc1ccc2c(C)c(C(=O)NCCCc3csc(N)n3)oc2c1`, `Cc1cc(C)c(CNC(=O)NCCOc2ccc3c(c2)CCC3)c(=O)[nH]1` is lower in cytotoxicity at 70.5 h: 8.41% for the first, -9.44% for the second.

Compared with `CS(=O)(=O)NCCC1CCCCN1C(=O)NCCc1ccccn1` (configuration not stated), `CCOc1cccc(CCNC(=O)Cc2ccccc2O)n1` is lower in cytotoxicity at 70.5 h: -14.3% for the first, -14.9% for the second.

First: Cc1ccc(C2CN(CCCC#N)CCO2)c(C)c1 (configuration not stated)
Second: COc1ccc(C)cc1CN1CCN(Cc2nccn2C)C(C)C1 (configuration not stated)
The cytotoxicity at 70.5 h of the first is lower: -2.64% for the first, 7.41% for the second.

Compared with `O=C1CC2(CCNCC2)C(=O)N1c1cccc(F)c1`, `NC(=O)c1ccc(CN2C(=O)C3(CCNCC3)Nc3ccccc32)cc1` is higher in cytotoxicity at 70.5 h: -0.489% for the first, 26.6% for the second.

Going from `O=C(CC1CNCCO1)N1CCC(c2cc(N3CCCC3)ncn2)CC1` (configuration not stated) to `CC1CCCCN1C(=O)CN1CCN(c2ccc3nncn3n2)CC1` (configuration not stated), the cytotoxicity at 70.5 h falls from 12.3% to -11.2%.

First: CC(=O)c1cccc(NC(=O)Cn2cc(-c3ccccc3)ncc2=O)c1
Second: COc1ccc(CNC(=O)C(NC(=O)Cc2ccccc2)C(C)C)cn1 (configuration not stated)
The cytotoxicity at 70.5 h of the first is lower: -6.47% for the first, 30.6% for the second.

Going from `COc1cc(OC)c(C2CC(=O)Oc3cc(C)[nH]c(=O)c32)c(OC)c1` (configuration not stated) to `Cc1cc(CN(C)C(=O)c2cc3c([nH]c2=O)CCCC3=O)no1`, the cytotoxicity at 70.5 h rises from -20.1% to -14.6%.

First: Cc1ccccc1OCC(=O)N1CCN(C2CCOC2=O)CC1 (configuration not stated)
Second: Cc1nnc2n1CCN(C(=O)CN1C(=O)CCOc3ccccc31)C2
The cytotoxicity at 70.5 h of the first is higher: 0.726% for the first, -7.17% for the second.

First: COCc1ccc(C(=O)N2CCC(c3cc4ncc(C)nc4[nH]3)C2)cc1 (configuration not stated)
Second: Cc1n[nH]cc1C(=O)N1CCCC(c2cccc(-n3ccnc3)n2)C1 (configuration not stated)
The cytotoxicity at 70.5 h of the first is higher: -4.31% for the first, -7.73% for the second.

Going from `Cc1ncccc1NC(=O)[C@@H]1CCO[C@@H]2CCN(c3ccccc3)C[C@@H]21` to `CN(C)C(=O)c1cccnc1N1CCOC(c2ccc(Cl)cc2)C1` (configuration not stated), the cytotoxicity at 70.5 h falls from -3.01% to -12.8%.

Compared with `Cc1cccc(CNC(Cc2ccsc2)c2nccs2)n1` (configuration not stated), `Cc1cccc(CN2CC3C[C@]3(NC(=O)c3ccco3)C2)n1` (some centres not stated) is lower in cytotoxicity at 70.5 h: 0.0464% for the first, -4.13% for the second.

First: CC(C)C(C)(O)CNC(=O)Nc1ccccn1 (configuration not stated)
Second: CC(NC(=O)NCCCn1cncn1)c1ccncc1 (configuration not stated)
The cytotoxicity at 70.5 h of the first is lower: -1.52% for the first, 2.26% for the second.

Going from `Cn1cc(Cl)cc1C(=O)N1CCCN(Cc2ccccc2)CC1` to `CC(=O)Nc1ccc(Oc2cccc(CN3CCCC3)c2)cc1`, the cytotoxicity at 70.5 h rises from -8.08% to -1.93%.

Compared with `FC(F)c1nnc2ccc(N3CCC4(CCOC4)C3)nn12` (configuration not stated), `Cc1cnc(N2CCOCC3(CCN(c4ccccn4)C3)C2)nc1` (configuration not stated) is lower in cytotoxicity at 70.5 h: 7.83% for the first, -9.64% for the second.

Going from `CCO[C@H]1CN(C(=O)c2ccc3c(c2)OCO3)[C@@H]2COC[C@H]12` to `CCc1ccccc1OCCN(C)C(=O)CCN1CCCO1`, the cytotoxicity at 70.5 h falls from -2.21% to -3.75%.

First: CC(=O)N1CCN(CCNS(=O)(=O)c2ccc(F)c(F)c2)CC1
Second: Cc1oc(C(=O)O)cc1S(=O)(=O)Nc1ccccc1F
The cytotoxicity at 70.5 h of the first is higher: 2.27% for the first, -11.3% for the second.

Compared with `N#CCCN1CCC(=Cc2ccccc2)CC1`, `CN(CC1CCN(CCO)CC1)CC(O)c1ccc(F)cc1` (configuration not stated) is higher in cytotoxicity at 70.5 h: -6.02% for the first, -5.05% for the second.

Compared with `CNC(=O)CN1CCCC12CCN(C(=O)c1cccc(F)c1)CC2`, `COCC(=O)N1CCC2(CC1)CCn1c(-c3cccc(OC)c3)cnc12` is higher in cytotoxicity at 70.5 h: 24.1% for the first, 36.2% for the second.

First: CC(C)c1cc(COCCCC(=O)O)no1
Second: CN(C)Cc1noc2c1CN(Cc1ccsc1)CC2
The cytotoxicity at 70.5 h of the first is higher: -2.63% for the first, -5.59% for the second.

Compared with `Cc1nc(C)n(CC2CN(c3ncccn3)Cc3nccn3C2)n1` (configuration not stated), `c1cnc(N2CCC3(COCc4cnc(N5CCOCC5)nc43)C2)nc1` (configuration not stated) is lower in cytotoxicity at 70.5 h: -8.98% for the first, -16.6% for the second.

Compared with `Cc1n[nH]c2c1C(c1ccc(O)cc1)SCC(=O)N2` (configuration not stated), `CSc1ccc(C(=O)N2CCOCC2c2c(C)nn(C)c2C)o1` (configuration not stated) is higher in cytotoxicity at 70.5 h: -11% for the first, -4.66% for the second.

First: CC(=O)NCc1nnc2n1CCN(c1ncnc3c(C)csc13)CC2
Second: Cc1ccc(Cl)c(CN2CCC3(CC2)C(C(=O)O)CC(=O)N3C)c1F (configuration not stated)
The cytotoxicity at 70.5 h of the first is higher: 27% for the first, -5.82% for the second.

Compared with `CCC(Oc1ccc(N(C)S(C)(=O)=O)cc1)C(=O)N(C)C` (configuration not stated), `CCS(=O)(=O)CC(C)NC(=O)N(C)Cc1cc(Cl)cn1C` (configuration not stated) is lower in cytotoxicity at 70.5 h: -3.36% for the first, -7.58% for the second.

Going from `N#Cc1ccc(F)c(CN2CCCC2Cn2cnc3ccccc32)c1` (configuration not stated) to `Cc1ncccc1NS(=O)(=O)Cc1cccc(F)c1`, the cytotoxicity at 70.5 h falls from 7.39% to -2.53%.

Compared with `Cc1cc(Cl)ccc1NCc1cnn(C2CCS(=O)(=O)C2)c1` (configuration not stated), `Cn1cc(S(=O)(=O)N2CCCC(Cn3cncn3)C2)cn1` (configuration not stated) is lower in cytotoxicity at 70.5 h: 5.78% for the first, -2.09% for the second.

First: c1coc(-c2nc3c(c(N4CCCN5CCC[C@H]5C4)n2)CCNCC3)c1
Second: COc1ccc(C(CN2CCN(C)CC2)Nc2ncccn2)cc1 (configuration not stated)
The cytotoxicity at 70.5 h of the first is lower: -2.19% for the first, 0.96% for the second.

First: Cc1ccc(C(CCNCCN(C)C)C2CCOC(C)(C)C2)cc1 (configuration not stated)
Second: Cn1cc(C(=O)Nc2ccc(CC(=O)NCC(F)(F)F)cc2)nn1
The cytotoxicity at 70.5 h of the first is higher: -5.89% for the first, -6.55% for the second.

Source: ChEMBL document CHEMBL3507680, “University of Dundee, Gates Library screen for HepG2 cell viability”
